The text below walks through data of US10604521B2, “Crystalline forms of PLX3397 hydrochloride, processes for preparation and use thereof” (Crystal Pharmaceutical (Suzhou) Co., Ltd., priority 2016, dated 2020).

The conditions of data set [1]: stored at 80° C. for 7 days; cited from earlier work.
Data set [2] in a line: Dynamic solubility (saturated solutions, HPLC). As to conditions: monohydrochloride. The data set is classed as physicochemical. As to the method: High Performance Liquid Chromatography (HPLC) data in the present disclosure are collected from Agilent 1100 with diode array detector (DAD). The HPLC method parameters for solubility test in the present disclosure are as follows:
4. Injection Volume: 4 μL
5. Detection wavelength: 230 nm
6. Column Temperature: 40° C.
7. Diluent: 50% Acetonitrile
Form CS2 of the present disclosure and Form C of WO2016179415 were suspended into SGF (Simulated gastric fluids) and water to get saturated solutions. After equilibrated for 1 h and 4 h, concentrations of the saturated solutions were measured by HPLC.

Data set [3] in a line: Particle size distribution (PSD), laser particle size analyzer, wet process. The data set is classed as physicochemical. As to conditions: volume distribution, dispersion medium Isopar G. As to the method:
The particle size distribution test in the present disclosure is acquired by the S3500 laser particle size analyzer of Microtrac. Microtrac S3500 is equipped with the SDC (Sample Delivery Controller). The test is carried out by wet process, and the dispersion medium is Isopar G The parameters are as follow: [table] Mv: Average particle size calculated by volume. D10: particle size which accounts for 10% of the particle size distribution (volume distribution). D50: particle size which accounts for 50% of the particle size distribution (volume distribution), also known as the median particle size. D90: particle size which accounts for 90% of the particle size distribution (volume distribution). PSD was performed on Form CS3 of the present disclosure and Form C of WO2016179415.

The nature of data set [4]: Mechanical stability: grinding in agate mortar, XRPD. The note with it: grinding for 5 minutes in agate mortar. The data set is classed as physicochemical. The procedure: A certain amount of Form C of WO2016179415, Form CS2 and Form CS3 samples were placed in an agate mortar. After grinding for 5 minutes, the obtained solid was collected for XRPD characterization. The results of Form C of WO2016179415, Form CS2 and Form CS3 were substantially as depicted in FIG. 16, FIG. 17 and FIG. 18, respectively.

A short description of data set [5]: Stability assessment of Form CS2 stored at 5° C. (XRPD and HPLC). The data set is classed as physicochemical. The note with it: for Purity: HPLC; for Solid Form: XRPD. As to the method: Form CS2 of the present disclosure was stored at 5° C. Samples were taken after 15 and 30 days to test XRPD and HPLC. The stability of From CS2 was mainly investigated. […] XRPD patterns overlay before and after storage for 30 days was substantially as depicted in FIG. 14.

Data set [6] is described as follows: Hygroscopicity test by dynamic vapor sorption (DVS), XRPD before and after. The data set is classed as physicochemical. As to conditions: 40%-95%-0-95% RH cycle at 25° C. As to the method:
Dynamic Vapor Sorption (DVS) is measured via a SMS (Surface Measurement Systems Ltd.) intrinsic DVS. Typical Parameters for DVS test are as follows: Temperature: 25° C. Gas and flow rate: N2, 200 mL/min dm/dt: 0.002%/min RH range: 0% RH to 95% RH 6.2 mg of monohydrochloride Form CS2 was placed into dynamic vapor sorption (DVS) instrument, and then went through a 40%-95%-0-95% RH cycle at 25° C. The DVS plot was substantially as depicted in FIG. 10. The XRPD patterns overlay of solids before and after DVS test was substantially as depicted in FIG. 11 (Top: XRPD pattern before DVS; Bottom: XRPD pattern after DVS). […] 7.9 mg of dihydrochloride Form CS3 was placed into dynamic vapor sorption (DVS) instrument, and then went through a 40%-95%-0-95% RH cycle at 25° C. The DVS plot was substantially as depicted in FIG. 12. The XRPD patterns overlay of solids before and after DVS test was substantially as depicted in FIG. 13 (Top: XRPD pattern before DVS; Bottom: XRPD pattern after DVS).

Data set [7] is described as follows: Stability assessment of Form CS3 stored at 25° C./60% RH. The data set is classed as physicochemical. As to the method:
Form CS3 of the present disclosure was stored at 25° C./60% RH for 90 days. Samples were taken after 15, 30 and 90 days to investigate the stability of From CS3. […] XRPD patterns overlay before and after storage for 90 days was substantially as depicted in FIG. 15.

Where a name gives a salt, the structure may show the parent alone.

Consider `FC(F)(F)c1ccc(CNc2ccc(Cc3c[nH]c4ncc(Cl)cc34)cn2)cn1` [Form A, PLX3397 monohydrochloride], for which the “Form change on storage” value in data set [1] is given as “converted to Form C”.

As to `FC(F)(F)c1ccc(CNc2ccc(Cc3c[nH]c4ncc(Cl)cc34)cn2)cn1` [Form C, PLX3397 monohydrochloride, reference compound], the Solubility is 80 µg/mL in data set [2] (H2O, 1 h); 600 µg/mL in data set [2] (H2O, 4 h); 490 µg/mL in data set [2] (SGF, 1 h); 560 µg/mL in data set [2] (SGF, 4 h). Moreover, the “D(10)” value in data set [3] (monohydrochloride) is recorded as 2.35 μm. In addition, the “D(50)” value in data set [3] (monohydrochloride) was 18.26 μm. The “D(90)” value in data set [3] (monohydrochloride) amounted to 118.8 μm. The “Crystalline form after grinding” value in data set [4] (listed as Form C of WO2016179415, monohydrochloride) is listed as “substantially changed to amorphous”.

Consider `FC(F)(F)c1ccc(CNc2ccc(Cc3c[nH]c4ncc(Cl)cc34)cn2)cn1` [Form CS2, PLX3397 monohydrochloride], for which the Purity in data set [5] (15 days) came to 99.45%; in data set [5] (30 days) it was 99.44%; in data set [5] (Initial) it was 99.53%. In addition, the “Solid Form” value in data set [5] (15 days), in data set [5] (30 days) and in data set [5] (Initial) was “No form change” throughout. Besides, the Solubility in data set [2] (H2O, 1 h) was determined as 2170 µg/mL; in data set [2] (H2O, 4 h), 1290 µg/mL; in data set [2] (SGF, 1 h) it was 1130 µg/mL; in data set [2] (SGF, 4 h) it was 1280 µg/mL. Moreover, the “Crystalline form after grinding” value in data set [4] (monohydrochloride) was “crystallinity of Form CS2 and Form CS3 decreased but the crystalline forms remained unchanged”. Besides, in data set [6], the “Form change after DVS test” value was “No form change”.

With `FC(F)(F)c1ccc(CNc2ccc(Cc3c[nH]c4ncc(Cl)cc34)cn2)cn1` [Form CS3, PLX3397 dihydrochloride], in data set [3] (dihydrochloride), the “D(10)” value stood at 6.55 μm, the “D(50)” value amounted to 47.85 μm and the “D(90)” value was 194.3 μm. Moreover, the “Crystalline form after grinding” value in data set [4] (dihydrochloride) was “crystallinity of Form CS2 and Form CS3 decreased but the crystalline forms remained unchanged”. In data set [7] (15 days), the Purity was determined as 99.60% and the “Solid Form” value is recorded as “No form change”. Further, in data set [7] (30 days), the Purity is recorded as 99.64% and the “Solid Form” value is “No form change”. For the same compound, in data set [7] (90 days), the Purity is reported as 99.50% and the “Solid Form” value is recorded as “No form change”. For the same compound, in data set [7] (Initial), the Purity is 99.51% and the “Solid Form” value was “No form change”. Further, in data set [6], the “Form change after DVS test” value is on record as “No form change”.
